Reference: patent US20140037715A1, “DISULFIRAM FORMULATION AND USES THEREOF” (UNIVERSITY OF WOLVERHAMPTON, priority 2010, published 2014)
pIC50: −log10 of the molar value. Values belong to the compound of their own block, whether it stands above or below them.

Experiments:
[1] = tested on: MCF7; assay: MTT cytotoxicity assay, single drugs and combinations with Lipo-DS/Cu; assay type: cell-based; settings: Homo sapiens, MCF7, 72 h
Method: (§1) All cell lines were cultured in DMEM (Lonza, Wokingham, UK) supplemented with 10% FCS, 50 units/ml penicillin, 50 μg/ml streptomycin. For in vitro cytotoxicity assay, cells [5,000/well (10,000/well for MDA-MB-231PAC10)] were cultured overnight in 96-well flat-bottomed microtiter plates then exposed to drugs for 72 h and subjected to a standard MTT assay (Plumb J A, et al Cancer Res 1989; 49(16):4435-40).
(§2) The cells were then subjected to MTT analysis as described above. […] The combination index (CI) was determined by mutually exclusive equations.

[2] = tested on: T47D; assay: as above; assay type: cell-based; settings: Homo sapiens, 72 h
Method: as §1, §2

[3] = tested on: MDA-MB-231; assay: as above; assay type: cell-based; settings: Homo sapiens, MDA-MB-231, 72 h
Method: as §1, §2

[4] = Stability in whole blood; assay type: in vitro ADME; settings: after 5 hours
[5] = tested on: S180 sarcoma; assay: S180 sarcoma growth in mice; assay type: in vivo; settings: S180 sarcoma bearing mice; DS 30 mg/kg oral, CuCl2 3 mg/kg oral
Method: An S180 mouse sarcoma (FIGS. 6A-6C) and MDA-MB-231 breast cancer cells (1×10^6) (FIG. 6D-6F) were subcutaneously injected into the rare frank of BALB/c and CD1 Nu/Nu mice respectively (S180: n=5; MDA-MB-231: n=6).
Five-week-old female athymic CD1 nude mice used in this study were housed under pathogen-free conditions. Human MDA-MB-231 breast cancer or mouse S180 sarcoma cells (1×10^6) were injected s.c. at one flank of the mice. Tumour volume (V) was determined by the equation: V=(L×W^2)×0.5, where L is the length and W is the width of the tumour. When xenografts reached volumes of ˜200 mm^3, the mice showing tumours were randomly grouped for the following treatments. The first day of drug treatment was designated as day 1.
Five groups (5 mice/group) were set up for mice with S180 sarcoma: 1. control, No treatment; 2. […] DS, non-encapsulated DS 30 mg/kg dissolved in vegetable oil, oral administration; 5. DS/Cu: DS 30 mg/kg oral and CuCl2 3 mg/kg oral.
The animals were subjected to different treatments when their tumours reached 2 mm in diameter. The drugs were administrated on Monday, Wednesday and Friday for two successive weeks. […] For the combination treatment groups, CuCl2 were administered in the morning.

[6] = cited from earlier work
[7] = Stability in plasma; assay type: in vitro ADME; settings: after 25 hours
[8] = tested on: breast cancer cell lines; assay: MTT cytotoxicity assay in breast cancer cell lines; settings: CuCl2 (10 μM) containing medium, 72 hours
Method: After 72 hours, the viability of the treated cells was determined by MTT assay.
The viability was determined by MTT assay.
as §1
The cells were then subjected to MTT analysis as described above.

SMILES: COc1cccc2c1C(=O)c1c(O)c3c(c(O)c1C2=O)C[C@@](O)(C(=O)CO)C[C@@H]3O[C@H]1C[C@H](N)[C@H](O)[C@H](C)O1 [Dox alone, doxorubicin]
pIC50 [1]: 6.36
pIC50 [2]: 6.80
pIC50 [3]: 6.75

SMILES: CC(=O)O[C@H]1C(=O)[C@@]2(C)[C@H]([C@H](OC(=O)c3ccccc3)[C@]3(O)C[C@H](OC(=O)[C@H](O)[C@@H](NC(=O)c4ccccc4)c4ccccc4)C(C)=C1C3(C)C)[C@]1(OC(C)=O)CO[C@@H]1C[C@@H]2O [Pac alone, paclitaxel]
pIC50 [1]: 8.37
pIC50 [2]: 8.59
pIC50 [3]: 8.03

remaining in whole blood [4]: about 10%
remaining in plasma [7]: about 15%
SMILES: CCN(CC)C(=S)SSC(=S)N(CC)CC [DS, disulfiram]
in vivo anticancer effect [5]: not detected
blood concentration ([6]; after oral administration of a 500 mg dose): below the limit of detection
half-life in the blood stream ([6]; degraded by glutathione reductase system in erythrocytes): 4 min
cytotoxicity to BC cell lines [8]: comparable cytotoxicity

SMILES: Nc1ccn([C@@H]2O[C@H](CO)[C@@H](O)C2(F)F)c(=O)n1 [GEM alone, gemcitabine]
pIC50 [1]: 7.66
pIC50 [2]: 7.46
pIC50 [3]: 7.91
